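Cultured in 96-well plates, cells were exposed to test compound for 48 hours across five concentrations. GI50 = concentration required for 50% inhibition of growth. TGI: total growth inhibition.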
Key:
Assay in all cases: NCI tumour cell line growth inhibition, 48 h
[1] = test system: IGROV1 ovarian
[2] = test system: CAKI-1 renal
[3] = test system: HCC-2998 colon
[4] = test system: SK-OV-3 ovarian
[5] = test system: SNB-75 CNS
[6] = test system: SR leukemia
[7] = test system: LOX IMVI melanoma
[8] = test system: A498 renal
[9] = test system: NCI-H522 lung
[10] = test system: CCRF-CEM leukemia

| SMILES | GI50 [1] | TGI [1] | GI50 [2] | TGI [2] | GI50 [3] | TGI [3] | GI50 [4] | TGI [4] | GI50 [5] | TGI [5] | GI50 [6] | TGI [6] | GI50 [7] | TGI [7] | GI50 [8] | TGI [8] | GI50 [9] | TGI [9] | GI50 [10] | TGI [10] |
| --- | --- | --- | --- | --- | --- | --- | --- | --- | --- | --- | --- | --- | --- | --- | --- | --- | --- | --- | --- | --- |
| CN1C(=O)N[C@H]2[C@@H]3NC(=O)c4ccc(Br)n4[C@@H]3C[C@]21O | 0.0617 µM | 1.6 µM | 2.4 µM | 13.1 µM | 0.13 µM | 1.75 µM | 1.37 µM | 5.5 µM | 0.106 µM | 0.969 µM | 0.0335 µM | 0.639 µM | 0.369 µM | 3.37 µM | 0.27 µM | 1.17 µM | 0.0384 µM | 0.31 µM | 0.0252 µM | 0.327 µM |
| CC(C)(C)CC(C)(C)NCc1cc(C(C)(C)C)cc(CNC(C)(C)CC(C)(C)C)c1O | 3.93 µM | 15.9 µM | 3.69 µM | 17.2 µM | 2.58 µM | 8.07 µM | 2.52 µM | 8.45 µM | 3.99 µM | 15.1 µM | 2.14 µM | 5.44 µM | 1.6 µM | 3.1 µM | 2.53 µM | 11.3 µM | 1.78 µM | 3.66 µM | 4.18 µM | 34.9 µM |
| COc1cc(-c2nc(-c3nc4ccccc4[nH]3)cc3c2[nH]c2ccccc23)cc(OC)c1OC | 2.94 µM | > 100 µM | 7.03 µM | > 100 µM | 7.32 µM | > 100 µM | > 100 µM | > 100 µM |  |  | 9.5 µM | > 100 µM | 4.72 µM | > 100 µM | 2.43 µM | > 100 µM | 3.51 µM | > 100 µM | 3.96 µM | > 100 µM |
| C=C1CCC2C(C)(COC(=O)CC)C(OC(=O)CC)CCC2(C)C1C/C=C1/C(=O)OCC1OC(=O)CC (stereo not drawn) | 1.9 µM | 3.69 µM | 1.65 µM | 3.37 µM | 4.25 µM | 13.9 µM | 3.85 µM | 9.74 µM | 1.22 µM | 3.68 µM | 1.58 µM | 5.28 µM | 1.51 µM | 3.01 µM | 4.05 µM | 13.3 µM | 0.346 µM | 1.7 µM | 0.558 µM | > 100 µM |
| COC(=O)c1cc(O)c2c(c1C(=O)OC)C[C@H]1[C@@H]3CC=C4C[C@@H](O)CC[C@]4(C)[C@H]3CC[C@]21C | 3.89 µM | 15.9 µM | 2.89 µM | 9.07 µM | 3.74 µM | 16 µM | 4.75 µM | 27.4 µM | 9.75 µM | 55.9 µM | 3.41 µM | > 100 µM |  |  | 3.7 µM | 20.1 µM | 2.17 µM | 5.44 µM | 1.71 µM | 4.99 µM |
| COc1cc(Nc2nc3ccccc3cc2C(=O)Nc2ccc(F)c(F)c2)cc(OC)c1OC | 4.08 µM | > 100 µM | 2.72 µM | > 100 µM | 4.19 µM | > 100 µM | 2.65 µM | 7.8 µM | 2.27 µM | 9.35 µM | 2.71 µM | 9.4 µM | 2.66 µM | 8.75 µM | 2.39 µM | 8.25 µM | 2.07 µM | 6.97 µM | 3.12 µM | > 100 µM |
| O=C(OCc1ncc(-c2ccc(C(F)(F)F)cc2)c(NC2CCCCCC2)n1)c1c(F)c(F)c(F)c(F)c1F | 2.86 µM | 7.28 µM | 17.5 µM | 37.3 µM | 16.7 µM | 32.7 µM | 21.6 µM | 39.1 µM | 13 µM | 25.9 µM | 3.13 µM | 12.4 µM |  |  | 18.7 µM | 33.2 µM | 3.9 µM | 14.6 µM | 1.83 µM | 7.02 µM |
| OCC(O)c1nc2ccc3[nH]ncc3c2c2c1CCCC2 (stereo not drawn) | 1.38 µM | > 50 µM | 0.971 µM | > 50 µM | 1.07 µM | 2.89 µM | 2.23 µM | > 50 µM | 0.849 µM | 1.6 µM | 0.658 µM | 4.52 µM | 1.1 µM | 3.85 µM | 0.876 µM | 1.75 µM | 1.5 µM | 9.87 µM | 1.62 µM | > 50 µM |
| Cc1nc(N2CCC3(CC2)CO[C@@H](C)[C@H]3N)c(CO)nc1Sc1ccnc(N)c1Cl | 0.629 µM | > 100 µM | 0.194 µM | > 100 µM | > 100 µM | > 100 µM | 0.789 µM | > 100 µM | 0.518 µM | > 100 µM | 11.9 µM | > 100 µM | 72.4 µM | > 100 µM | 0.657 µM | > 100 µM | 1.32 µM | > 100 µM | > 91.3 µM | > 100 µM |
| CCOC(=N)CC(=O)c1ccccc1 |  | > 100 µM |  | > 100 µM |  | > 100 µM |  | > 100 µM |  | > 100 µM |  | > 100 µM |  | > 100 µM |  | > 100 µM |  | > 100 µM |  | > 100 µM |
| CCCC(CCC)C(=O)OCC1(CO)C/C(=C\c2ccc(F)cc2)C(=O)O1 (stereo not drawn) | 15.5 µM | 32.7 µM | 7.28 µM | 27.4 µM | 6.73 µM | 19.8 µM | 19.5 µM | 33.9 µM | 7.99 µM | 22.8 µM | 6.55 µM | 25.4 µM | 11.2 µM | 24.5 µM | 1.46 µM | 12.4 µM | 14.5 µM | 30.4 µM | 0.0233 µM | 0.107 µM |
| CC/C(CC(=O)CCC(=O)Nc1ccccc1[N+](=O)[O-])=N/NC(=O)C[n+]1ccccc1 |  | > 100 µM |  | > 100 µM |  | > 100 µM |  | > 100 µM |  | > 100 µM |  | > 100 µM |  | > 100 µM |  | > 100 µM |  | > 100 µM |  | > 100 µM |
| O=Cc1cccc2c1Oc1c(cccc1C(=O)O)S2 |  | > 100 µM |  | > 100 µM |  | > 100 µM |  | > 100 µM |  | > 100 µM |  | > 100 µM |  | > 100 µM |  | > 100 µM |  | > 100 µM |  |  |
